“And” between values parts separate entries of the source, which are not always exact repeats. Identical values can stand only once. “Also recorded” adds a separate entry of the source.
Columns and labels:
[1] = Trolox Equivalent Antioxidant Capacity (TEAC) assay; assay type: biochemical; conditions: for ABTS radical inhibition: Table A, 50 μg/ml and 250 μg/ml where stated
Description: This method is based on the ability of antioxidant molecules to inactivate ABTS° ^+ radical with a long lifetime, compared to Trolox, a water-soluble vitamin E analog, used as the positive control. ABTS° ^+ radical is blue-green chromophore with a characteristic absorption at 734 nm.
The samples of the test substances and Trolox are diluted in PBS buffer to obtain the chosen concentrations, Then, 200 μl of ABTS° ^+ at a concentration of 7 mM is added to 50 μl of sample or Trolox solution in 96-well plates.
The absorbance of the various samples is read every 2 minutes for 6 minutes (incubation time) at ambient temperature. The results are given as a percentage of ABTS radical inhibition, and as Trolox equivalent (μM).

[2] = tested on: CnAOEC cells; assay: 3H-thymidine proliferation test in canine aortic endothelial cells; assay type: cell-based; conditions: for effect on CnAOEC cell proliferation: reference substances, phase 1, 48 hours exposure
Description: The cells are cultured in a culture medium containing CECGM (Canine Endothelial Cell Growth Medium) growth factors and previously coated with AFS (Attachment Factor Solution) agent to assist with the adherence thereof.
The confluent CnAOEC cell cultures were re-inoculated in 96-well culture plates (10,000 cells per […]). Six hours after the inoculation thereof, the cells were exposed to ^3H-thymidine (final concentration: 1 μCi/ml) and to the respective test agents for 48 hours, and were subjected to two washing steps with PBS. After a treatment with trypsin and a freeze-thaw cycle, the DNA incorporating ^3H-thymidine was captured on a glass fiber filter using a “Betaplate™ 96-bien-Cell Harvester” (Wallac, Turku).
The quantities of ^3H-thymidine incorporated in the control cells (without adding test agent) were defined as 100% and the results were expressed as a function of these control cells.
The soy isoflavones were solubilized in DMSO. The experimental samples, and those of the respective controls (DMSO free from test substance) contained a final DMSO concentration of 1%.
The statistical evaluation is based on three or four separate experiments, each being performed with 2 to 4 independent wells.

[3] = tested on: CnAOEC cells; assay: Protection of CnAOEC cells against H2O2 oxidative stress, MTT viability; assay type: cell-based, canine; conditions: 2 mM H2O2; for protective effect on CnAOEC cell viability: 50 μg/ml; for protective effect on CnAOEC cell viability against H2O2: 1 to 250 μg/ml
Description: The plates are then centrifuged, and the formazan resulting from the reaction with MTT is solubilized in DMSO. The absorbance is measured at 570 nm, with a correction at 690 nm. The ability of the natural substances to protect cells against the adverse effects of oxidative stress was evaluated in CnAOEC cells. […] After the pretreatment period, the cells were subjected to oxidative stress (2 mM H2O2) for 24 hours and the cell viability was evaluated using the MTT test as described above. For this test, the data are means obtained from eight different experiments±Standard Deviation (SD). They were analyzed statistically using a one-way ANOVA Student t-test. The differences were considered to be significant when p<0.05.

[4] = DPPH antioxidant test; assay type: biochemical
Description: The absorbance of the mixture is read at 540 nm every 5 minutes for 30 minutes at ambient temperature. After reduction, the color of the solution disappears (change from a violet color to a light yellow color). The reduction (referred to herein as “inhibition” or “quenching”) percentage reflects the free radical scavenging capacity of the test sample. Trolox is also used as a positive control. The results are given as a DPPH radical inhibition percentage.

[5] = tested on: CnAOEC cells; assay type: cell-based, canine; conditions: dog, 24 h, 60 µM
Description: The MTT test was used for evaluating the viability of CNAOEC cells exposed to cytotoxic treatments (60 μM of digitonin or addition between 0.1% and 20% of DMSO or at increasing concentrations (ranging from 0.5 mM to 16 mM) of H2O2 for 24 hours so as to induce oxidative stress.
In this test, the cell damage is evaluated 24 hours after treatment with the cytotoxic substance by means of a 4-hour incubation with MTT at 0.5 mg/ml, 37° C. and 5% CO2. The plates are then centrifuged, and the formazan resulting from the reaction with MTT is solubilized in DMSO. The absorbance is measured at 570 nm, with a correction at 690 nm.
The MTT test was chosen to measure the cell viability on the basis of the data obtained after treating the cell with 60 μm digitonin (73% reduction±10%) and with 10% and 20% DMSO.
The damage to the CnAOEC cells caused by free radicals is obtained from a treatment with H2O2 at a concentration range from 0.5 mM to 16 mM.

[6] = tested on: CnAOEC cells; assay: 3H-thymidine DNA fragmentation apoptosis test in canine aortic endothelial cells; assay type: cell-based; conditions: for inhibition of the pro-apoptotic effects of free fatty acids: linoleic acid or γ-linolenic acid plus antioxidant, FIGS. 3 and 4; for effect on CnAOEC cell apoptosis: reference substances, phase 1, 24 hours exposure
Description: The 60 mm plates containing semi-confluent CnAOEC cells were labeled with ^3H-thymidine (1 μCi/ml) for 36 hours. These cells were then inoculated in 24-well culture plates (50,000 cells/well). After the exposure thereof to the agents under test (24 hours), the cells were treated with a lysis buffer (20 mmol/1 TrisHCl, pH 7.5, and 0.4% of Triton X-100 in PBS). The radiolabeled fragmented (apoptotic) DNA present in the supernatant was counted using a liquid scintillation analyzer. The results were then correlated with the total radioactivity incorporated in the cells (quantified after digestion of the remaining suspension with 180 μg/ml of DNase). The values calculated for the control cells (without adding test agent) were set at 100% and the results were expressed as a function of these control cells. Each time the reference substances were dissolved in ethanol (final concentration 1.5%), an identical quantity of ethanol was added to all the other wells, including the control wells.
The apoptosis tests were conducted with radiolabeled CnAOEC cells, at 60% confluence and in culture dishes previously treated with fibronectin.
The statistical evaluation is based on three separate experiments, each being performed with 2 to 4 independent wells.
The modulation of CnAOEC cell apoptosis (variation measured as a % relative to the control set at 100%) is performed in comparison to the reference substance glutathione (GSH).

[7] = humans; cited from earlier work
[8] = dogs; cited from earlier work

With `C[N+](C)(C)C[C@H](O)CC(=O)[O-].O=C(O)C(O)C(O)C(=O)O` [L-carnitine, L-carnitine-L-tartrate] the “ABTS radical inhibition” value [1] was “did not display any effect; also recorded: do not display any scavenging activity with ABTS”, the “ABTS°+ inhibition %” value ([1]; sample 1 μg/ml) was 0.45% and the “ABTS°+ inhibition %” value ([1]; sample 50 μg/ml) was 0.37%. For the same compound, the “ABTS°+ inhibition %” value ([1]; sample 250 μg/ml) was 0.92%, the “drop in CnAOEC cell proliferation” value ([2]; 50 μg/ml, 48 hours) was 3.75% and the “renewal rate (proliferation relative to control set at 100%)” value ([2]; 50 μg/ml, 48 hours) was 96.25%. The “protective effect on CnAOEC cell viability” value [3] was “not capable of maintaining CnAOEC cell viability”, the “protective effect on CnAOEC cell viability against H2O2” value [3] was “did not display a protective effect” and the “% DPPH (radical inhibition)” value ([4]; sample 1 μg/ml) was 6.74%. For the same compound, the “% DPPH (radical inhibition)” value ([4]; sample 50 μg/ml) was 4.97%, the “% DPPH (radical inhibition)” value ([4]; sample 250 μg/ml) was 15% and 14.94% and the “DPPH scavenging activity” value ([4]; text on Table B) was “low”.
For `C[C@@H]1CC[C@@]2(OC1)O[C@H]1[C@@H](O)[C@H]3[C@@H]4CC[C@H]5C[C@@H](O[C@@H]6O[C@H](CO)[C@H](O[C@@H]7O[C@H](CO)[C@@H](O)[C@H](O[C@@H]8OC[C@@H](O)[C@H](O)[C@H]8O)[C@H]7O[C@@H]7O[C@H](CO)[C@H](O)[C@H](O[C@@H]8O[C@H](CO)[C@@H](O)[C@H](O)[C@H]8O)[C@H]7O)[C@H](O)[C@H]6O)[C@H](O)C[C@]5(C)[C@H]4CC[C@]3(C)[C@H]1[C@@H]2C` [digitonin], the “reduction of cell viability (MTT)” value [5] was 73%.
With `NCCS(=O)(=O)O` [Taurine, taurine] the “ABTS radical inhibition” value [1] was “did not display any effect; also recorded: do not display any scavenging activity with ABTS”, the “ABTS°+ inhibition %” value ([1]; sample 1 μg/ml) was −0.50% and the “ABTS°+ inhibition %” value ([1]; sample 50 μg/ml) was −0.69%. For the same compound, the “ABTS°+ inhibition %” value ([1]; sample 250 μg/ml) was −0.62%, the “drop in CnAOEC cell proliferation” value ([2]; 50 μg/ml, 48 hours) was 4% and the “protective effect on CnAOEC cell viability” value [3] was “not capable of maintaining CnAOEC cell viability”. The “protective effect on CnAOEC cell viability against H2O2” value [3] was “did not display a protective effect”, the “% DPPH (radical inhibition)” value ([4]; sample 1 μg/ml) was 4.95% and the “% DPPH (radical inhibition)” value ([4]; sample 50 μg/ml) was 10.84%. For the same compound, the “% DPPH (radical inhibition)” value ([4]; sample 250 μg/ml) was 25.09% and the “% DPPH (radical inhibition)” value ([4]; sample 250 μg/ml, listed as taurine) was 24%.
In the case of `CC(=O)N[C@@H](CS)C(=O)O` [N-acetylcysteine], the “inhibition of the pro-apoptotic effects of free fatty acids” value [6] is reported as “not completely inhibited” and the “effect on CnAOEC cell apoptosis” value [6] is reported as “inhibit apoptosis in CnAOEC cells significantly; also recorded: cell apoptosis is inhibited”.
With `Cc1c(C)c2c(c(C)c1O)CCC(C)(C(=O)O)O2` (stereo not drawn) [Trolox, reference compound] the “% DPPH (radical inhibition)” value ([4]; 5 μM) was 4.21%, the “% DPPH (radical inhibition)” value ([4]; 10 μM) was 9.91% and the “% DPPH (radical inhibition)” value ([4]; 15 μM) was 17.00%. The “% DPPH (radical inhibition)” value ([4]; 20 μM) was 23.49%, the “% DPPH (radical inhibition)” value ([4]; 25 μM) was 28.6% and the “% DPPH (radical inhibition)” value ([4]; 30 μM) was 33.06%. The “% DPPH (radical inhibition)” value ([4]; 40 μM) was 41.18%.
For “bFGF: basic Fibroblast Growth Factor, vascular growth factor reference”, the “effect on CnAOEC cell proliferation” value [2] was “no pro-proliferation effect on CnAOEC cells; also recorded: did not induce the same response in CnAOEC cells; also recorded: have no influence on CnAOEC cell proliferation”.
With `CCCCC/C=C\C/C=C\CCCCCCCC(=O)O` [linoleic acid, reference compound] the “effect on CnAOEC cell apoptosis” value [6] was “very strong pro-apoptotic reaction” and the “effect on CnAOEC cell proliferation” value [2] was “inhibit endothelial proliferation completely; also recorded: reduce CnAOEC cell proliferation considerably”.
In the case of `O=c1oc2c(O)c(O)cc3c(=O)oc4c(O)c(O)cc1c4c23` [ellagic acid], the “plasma concentration after dietary supplementation with pomegranate extract” value [7] is given as “approximately 10 μg/ml”.
In the case of `CCCCC/C=C\C/C=C\C/C=C\CCCCC(=O)O` [γ-linolenic acid, reference compound], the “effect on CnAOEC cell apoptosis” value [6] is reported as “very strong pro-apoptotic reaction” and the “effect on CnAOEC cell proliferation” value [2] is reported as “inhibit endothelial proliferation completely; also recorded: reduce CnAOEC cell proliferation considerably”.
In the case of `O=c1c(-c2ccc(O)cc2)coc2cc(O)cc(O)c12` [genistein], the “plasma concentrations after oral supplementation” value [8] is listed as ≤ 5000 ng/mL.
For VEGF, the “effect on CnAOEC cell proliferation” value [2] was “no pro-proliferation effect on CnAOEC cells; also recorded: did not induce the same response in CnAOEC cells; also recorded: have no influence on CnAOEC cell proliferation”.
With `N[C@@H](CCC(=O)N[C@@H](CS)C(=O)NCC(=O)O)C(=O)O` [glutathione] the “inhibition of the pro-apoptotic effects of free fatty acids” value [6] was “not completely inhibited”, the “effect on CnAOEC cell apoptosis” value [6] was “inhibit apoptosis in CnAOEC cells significantly; also recorded: cell apoptosis is inhibited” and the “proliferation, % of the control” value ([2]; 10 mmol/l, positive control) was 54.75%. For the same compound, the “effect on CnAOEC cell proliferation” value [2] was “reduce CnAOEC cell proliferation considerably”.
